Results taken from ChEMBL document CHEMBL5291721, “A preclinical secondary pharmacology resource illuminates target-adverse drug reaction associations of marketed drugs” (Nat Commun, 2023).

Key:
[1] = biological target: T1, Adenosine receptor A3 (Homo sapiens, UniProt P0DMS8)
T1 sequence (P0DMS8 whole entry): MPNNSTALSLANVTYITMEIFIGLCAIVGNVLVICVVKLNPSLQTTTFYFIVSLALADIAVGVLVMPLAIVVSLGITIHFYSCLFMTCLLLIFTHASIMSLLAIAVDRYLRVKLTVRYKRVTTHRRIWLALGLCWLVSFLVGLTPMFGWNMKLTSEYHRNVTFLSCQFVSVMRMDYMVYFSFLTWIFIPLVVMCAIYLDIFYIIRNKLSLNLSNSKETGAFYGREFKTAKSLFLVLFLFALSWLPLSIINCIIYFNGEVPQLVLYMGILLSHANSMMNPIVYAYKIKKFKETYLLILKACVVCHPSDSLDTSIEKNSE

[2] = biological target: T2, Amine oxidase [flavin-containing] A (Homo sapiens, UniProt P21397); assay type: functional
T2 sequence (P21397 whole entry): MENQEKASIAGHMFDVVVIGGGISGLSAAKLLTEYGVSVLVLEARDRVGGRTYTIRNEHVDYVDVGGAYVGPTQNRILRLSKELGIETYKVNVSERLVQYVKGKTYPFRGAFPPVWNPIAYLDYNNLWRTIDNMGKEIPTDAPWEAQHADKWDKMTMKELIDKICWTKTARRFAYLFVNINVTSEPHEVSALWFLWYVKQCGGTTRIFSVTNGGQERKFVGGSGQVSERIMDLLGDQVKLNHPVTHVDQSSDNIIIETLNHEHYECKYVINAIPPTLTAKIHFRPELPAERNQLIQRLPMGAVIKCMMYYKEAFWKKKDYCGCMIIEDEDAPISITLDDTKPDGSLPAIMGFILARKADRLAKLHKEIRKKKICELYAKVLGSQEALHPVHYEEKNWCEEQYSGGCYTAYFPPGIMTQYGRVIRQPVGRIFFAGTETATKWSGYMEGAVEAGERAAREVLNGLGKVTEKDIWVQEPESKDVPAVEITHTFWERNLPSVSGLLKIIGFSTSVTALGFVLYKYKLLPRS

[3] = biological target: T3, 5-hydroxytryptamine receptor 2C (Homo sapiens, UniProt P28335)
T3 sequence (P28335 whole entry): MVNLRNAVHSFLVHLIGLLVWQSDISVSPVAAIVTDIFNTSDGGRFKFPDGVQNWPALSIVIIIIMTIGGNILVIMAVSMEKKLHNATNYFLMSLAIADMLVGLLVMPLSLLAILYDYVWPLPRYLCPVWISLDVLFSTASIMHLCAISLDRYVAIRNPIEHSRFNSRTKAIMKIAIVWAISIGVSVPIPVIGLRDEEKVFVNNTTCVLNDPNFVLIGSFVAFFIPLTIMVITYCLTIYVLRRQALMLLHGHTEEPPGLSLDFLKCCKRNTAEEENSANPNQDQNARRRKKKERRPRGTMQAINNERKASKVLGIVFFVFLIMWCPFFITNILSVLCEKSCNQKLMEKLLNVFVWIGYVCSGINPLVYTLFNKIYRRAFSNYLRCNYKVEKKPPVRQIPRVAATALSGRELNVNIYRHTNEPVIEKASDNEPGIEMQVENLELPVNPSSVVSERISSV

[4] = biological target: Sodium-dependent noradrenaline transporter (Homo sapiens, UniProt P23975)
[5] = biological target: Vasopressin V1a receptor (Homo sapiens, UniProt P37288)
[6] = biological target: Beta-1 adrenergic receptor (Homo sapiens, UniProt P08588); assay type: functional
[7] = biological target: Voltage-gated inwardly rectifying potassium channel KCNH2 (Homo sapiens, UniProt Q12809); assay type: functional; settings: read-out: AC50
[8] = biological target: T4, Prostaglandin G/H synthase 1 (Rattus norvegicus, UniProt Q63921); assay type: functional
T4 sequence (Q63921 whole entry): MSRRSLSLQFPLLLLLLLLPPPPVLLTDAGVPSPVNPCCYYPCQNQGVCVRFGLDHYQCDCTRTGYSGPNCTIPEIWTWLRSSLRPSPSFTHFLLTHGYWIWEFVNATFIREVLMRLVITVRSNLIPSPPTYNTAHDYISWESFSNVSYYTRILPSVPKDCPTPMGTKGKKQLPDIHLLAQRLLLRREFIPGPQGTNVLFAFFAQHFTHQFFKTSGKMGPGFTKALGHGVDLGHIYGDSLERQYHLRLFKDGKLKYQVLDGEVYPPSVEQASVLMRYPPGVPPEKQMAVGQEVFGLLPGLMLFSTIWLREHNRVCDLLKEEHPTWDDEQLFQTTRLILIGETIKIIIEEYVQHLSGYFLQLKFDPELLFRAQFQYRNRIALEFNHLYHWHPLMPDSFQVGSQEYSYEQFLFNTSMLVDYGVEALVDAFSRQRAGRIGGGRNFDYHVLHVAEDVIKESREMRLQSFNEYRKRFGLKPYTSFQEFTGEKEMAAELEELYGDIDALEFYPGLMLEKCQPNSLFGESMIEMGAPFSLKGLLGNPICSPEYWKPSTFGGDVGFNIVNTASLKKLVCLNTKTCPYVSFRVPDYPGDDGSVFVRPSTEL

[9] = biological target: D(1A) dopamine receptor (Homo sapiens, UniProt P21728); assay type: functional, cell-based
[10] = biological target: D(3) dopamine receptor (Homo sapiens, UniProt P35462)
[11] = biological target: 5-hydroxytryptamine receptor 2B (Homo sapiens, UniProt P41595); assay type: functional, cell-based
[12] = biological target: Bile salt export pump (Homo sapiens, UniProt O95342); assay type: functional
[13] = biological target: T5, 5-hydroxytryptamine receptor 3A (Homo sapiens, UniProt P46098); assay type: functional
T5 sequence (P46098 whole entry): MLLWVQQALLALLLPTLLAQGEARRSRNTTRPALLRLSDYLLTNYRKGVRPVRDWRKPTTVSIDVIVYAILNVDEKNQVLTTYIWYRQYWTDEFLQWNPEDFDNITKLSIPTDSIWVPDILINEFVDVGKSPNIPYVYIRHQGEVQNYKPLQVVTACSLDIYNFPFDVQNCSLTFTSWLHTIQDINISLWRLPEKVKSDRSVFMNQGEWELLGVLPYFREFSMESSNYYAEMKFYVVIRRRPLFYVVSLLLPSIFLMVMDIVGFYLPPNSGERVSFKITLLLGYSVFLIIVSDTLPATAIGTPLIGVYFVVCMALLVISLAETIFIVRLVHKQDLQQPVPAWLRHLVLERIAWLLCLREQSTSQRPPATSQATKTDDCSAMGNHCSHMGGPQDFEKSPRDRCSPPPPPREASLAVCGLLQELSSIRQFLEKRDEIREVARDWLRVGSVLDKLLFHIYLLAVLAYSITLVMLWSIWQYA

[14] = biological target: Neuronal acetylcholine receptor subunit alpha-4 (Homo sapiens, UniProt P43681)
Note: assay procedure not described here.

Chain of Vasopressin V1a receptor (P37288 whole entry): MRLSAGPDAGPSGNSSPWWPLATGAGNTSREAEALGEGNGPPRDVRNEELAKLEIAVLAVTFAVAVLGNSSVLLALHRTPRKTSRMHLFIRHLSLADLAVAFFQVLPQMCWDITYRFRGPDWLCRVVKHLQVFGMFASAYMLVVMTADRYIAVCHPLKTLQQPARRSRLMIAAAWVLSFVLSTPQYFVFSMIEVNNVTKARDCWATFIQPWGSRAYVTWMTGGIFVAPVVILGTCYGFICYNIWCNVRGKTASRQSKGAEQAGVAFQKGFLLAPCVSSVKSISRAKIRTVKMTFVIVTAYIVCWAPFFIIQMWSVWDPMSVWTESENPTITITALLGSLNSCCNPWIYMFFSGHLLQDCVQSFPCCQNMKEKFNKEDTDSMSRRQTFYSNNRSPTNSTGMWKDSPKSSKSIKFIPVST
Chain of D(1A) dopamine receptor (P21728 whole entry): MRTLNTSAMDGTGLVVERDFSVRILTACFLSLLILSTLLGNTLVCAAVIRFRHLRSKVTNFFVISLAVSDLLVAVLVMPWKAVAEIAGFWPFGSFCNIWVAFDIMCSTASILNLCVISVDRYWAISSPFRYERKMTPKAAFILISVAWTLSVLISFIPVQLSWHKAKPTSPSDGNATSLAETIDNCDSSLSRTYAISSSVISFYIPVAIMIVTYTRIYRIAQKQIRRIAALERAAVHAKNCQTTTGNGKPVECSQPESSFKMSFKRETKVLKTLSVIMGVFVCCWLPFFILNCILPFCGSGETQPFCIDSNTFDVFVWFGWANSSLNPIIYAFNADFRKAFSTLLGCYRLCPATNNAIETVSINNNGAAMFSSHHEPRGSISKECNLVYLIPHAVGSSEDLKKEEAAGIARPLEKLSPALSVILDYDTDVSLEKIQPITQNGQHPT
Chain of Sodium-dependent noradrenaline transporter (P23975 whole entry): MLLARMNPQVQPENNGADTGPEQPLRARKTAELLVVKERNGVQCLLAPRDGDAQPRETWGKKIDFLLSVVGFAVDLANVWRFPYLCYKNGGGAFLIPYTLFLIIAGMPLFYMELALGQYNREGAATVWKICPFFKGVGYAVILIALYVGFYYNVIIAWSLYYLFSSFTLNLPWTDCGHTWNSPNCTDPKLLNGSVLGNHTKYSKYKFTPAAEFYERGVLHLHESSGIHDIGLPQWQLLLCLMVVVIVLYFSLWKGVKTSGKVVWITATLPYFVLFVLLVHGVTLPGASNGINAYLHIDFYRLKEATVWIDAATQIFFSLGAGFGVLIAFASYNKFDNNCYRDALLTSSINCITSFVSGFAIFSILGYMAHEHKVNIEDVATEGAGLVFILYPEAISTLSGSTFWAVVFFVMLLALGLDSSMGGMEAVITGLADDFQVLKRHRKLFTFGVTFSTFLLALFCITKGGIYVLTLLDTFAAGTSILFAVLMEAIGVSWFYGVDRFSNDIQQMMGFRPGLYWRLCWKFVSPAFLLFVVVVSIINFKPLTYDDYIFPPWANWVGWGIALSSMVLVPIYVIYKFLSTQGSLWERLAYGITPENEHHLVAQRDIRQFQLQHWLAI
Chain of 5-hydroxytryptamine receptor 2B (P41595 whole entry): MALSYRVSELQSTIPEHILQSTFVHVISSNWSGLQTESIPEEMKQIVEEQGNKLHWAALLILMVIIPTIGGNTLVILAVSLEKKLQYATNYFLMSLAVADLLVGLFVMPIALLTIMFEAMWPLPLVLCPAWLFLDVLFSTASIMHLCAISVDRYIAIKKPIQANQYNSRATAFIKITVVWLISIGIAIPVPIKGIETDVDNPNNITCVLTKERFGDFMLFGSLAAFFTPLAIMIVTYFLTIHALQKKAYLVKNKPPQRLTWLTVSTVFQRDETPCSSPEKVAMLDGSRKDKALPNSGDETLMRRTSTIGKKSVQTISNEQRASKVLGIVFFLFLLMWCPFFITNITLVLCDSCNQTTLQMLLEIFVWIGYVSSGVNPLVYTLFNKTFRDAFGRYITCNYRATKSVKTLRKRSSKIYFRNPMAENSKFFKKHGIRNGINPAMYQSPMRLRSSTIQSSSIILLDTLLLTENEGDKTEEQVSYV
Chain of Bile salt export pump (O95342 whole entry): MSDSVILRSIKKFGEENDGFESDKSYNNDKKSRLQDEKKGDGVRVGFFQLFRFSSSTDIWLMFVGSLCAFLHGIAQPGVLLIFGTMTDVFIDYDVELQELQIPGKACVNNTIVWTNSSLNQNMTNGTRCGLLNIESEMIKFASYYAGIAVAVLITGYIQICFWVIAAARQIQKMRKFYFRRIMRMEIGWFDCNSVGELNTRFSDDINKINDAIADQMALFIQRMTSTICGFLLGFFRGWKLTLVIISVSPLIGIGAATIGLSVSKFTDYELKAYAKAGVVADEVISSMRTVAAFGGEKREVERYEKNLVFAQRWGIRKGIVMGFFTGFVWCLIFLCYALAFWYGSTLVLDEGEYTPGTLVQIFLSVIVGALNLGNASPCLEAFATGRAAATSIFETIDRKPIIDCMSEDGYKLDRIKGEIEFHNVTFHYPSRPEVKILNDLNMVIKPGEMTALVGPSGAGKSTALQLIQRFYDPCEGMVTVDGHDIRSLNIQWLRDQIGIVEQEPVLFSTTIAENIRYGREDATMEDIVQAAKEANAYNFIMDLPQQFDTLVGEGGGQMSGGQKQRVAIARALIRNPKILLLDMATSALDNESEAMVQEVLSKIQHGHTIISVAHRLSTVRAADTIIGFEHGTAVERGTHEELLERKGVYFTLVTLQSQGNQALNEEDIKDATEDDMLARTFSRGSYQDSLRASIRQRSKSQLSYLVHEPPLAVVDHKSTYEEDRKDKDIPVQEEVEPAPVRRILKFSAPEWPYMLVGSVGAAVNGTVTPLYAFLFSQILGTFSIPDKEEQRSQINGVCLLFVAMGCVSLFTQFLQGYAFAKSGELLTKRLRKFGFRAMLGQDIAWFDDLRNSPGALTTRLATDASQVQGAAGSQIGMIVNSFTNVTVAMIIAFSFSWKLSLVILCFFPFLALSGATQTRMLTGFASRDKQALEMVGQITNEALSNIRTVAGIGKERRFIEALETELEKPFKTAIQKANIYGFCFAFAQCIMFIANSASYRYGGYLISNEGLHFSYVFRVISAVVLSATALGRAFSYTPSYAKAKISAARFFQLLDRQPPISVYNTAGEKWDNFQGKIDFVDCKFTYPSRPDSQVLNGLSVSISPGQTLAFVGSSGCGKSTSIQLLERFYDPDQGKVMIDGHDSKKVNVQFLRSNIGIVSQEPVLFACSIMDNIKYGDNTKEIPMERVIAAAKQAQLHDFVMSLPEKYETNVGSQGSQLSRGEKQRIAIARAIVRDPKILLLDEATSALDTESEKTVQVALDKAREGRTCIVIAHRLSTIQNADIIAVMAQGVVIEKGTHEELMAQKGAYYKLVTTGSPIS
Chain of D(3) dopamine receptor (P35462 whole entry): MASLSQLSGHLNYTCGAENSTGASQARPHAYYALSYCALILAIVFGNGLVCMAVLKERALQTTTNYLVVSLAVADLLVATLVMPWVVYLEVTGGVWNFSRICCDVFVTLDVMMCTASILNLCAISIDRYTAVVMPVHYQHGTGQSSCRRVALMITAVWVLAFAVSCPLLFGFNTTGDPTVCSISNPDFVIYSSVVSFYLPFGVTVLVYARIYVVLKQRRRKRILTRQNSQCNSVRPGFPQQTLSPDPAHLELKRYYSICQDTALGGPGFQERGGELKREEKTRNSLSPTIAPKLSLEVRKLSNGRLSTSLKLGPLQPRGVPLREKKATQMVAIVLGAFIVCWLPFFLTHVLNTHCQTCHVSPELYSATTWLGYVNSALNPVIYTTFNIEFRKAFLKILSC
Chain of Voltage-gated inwardly rectifying potassium channel KCNH2 (Q12809 whole entry): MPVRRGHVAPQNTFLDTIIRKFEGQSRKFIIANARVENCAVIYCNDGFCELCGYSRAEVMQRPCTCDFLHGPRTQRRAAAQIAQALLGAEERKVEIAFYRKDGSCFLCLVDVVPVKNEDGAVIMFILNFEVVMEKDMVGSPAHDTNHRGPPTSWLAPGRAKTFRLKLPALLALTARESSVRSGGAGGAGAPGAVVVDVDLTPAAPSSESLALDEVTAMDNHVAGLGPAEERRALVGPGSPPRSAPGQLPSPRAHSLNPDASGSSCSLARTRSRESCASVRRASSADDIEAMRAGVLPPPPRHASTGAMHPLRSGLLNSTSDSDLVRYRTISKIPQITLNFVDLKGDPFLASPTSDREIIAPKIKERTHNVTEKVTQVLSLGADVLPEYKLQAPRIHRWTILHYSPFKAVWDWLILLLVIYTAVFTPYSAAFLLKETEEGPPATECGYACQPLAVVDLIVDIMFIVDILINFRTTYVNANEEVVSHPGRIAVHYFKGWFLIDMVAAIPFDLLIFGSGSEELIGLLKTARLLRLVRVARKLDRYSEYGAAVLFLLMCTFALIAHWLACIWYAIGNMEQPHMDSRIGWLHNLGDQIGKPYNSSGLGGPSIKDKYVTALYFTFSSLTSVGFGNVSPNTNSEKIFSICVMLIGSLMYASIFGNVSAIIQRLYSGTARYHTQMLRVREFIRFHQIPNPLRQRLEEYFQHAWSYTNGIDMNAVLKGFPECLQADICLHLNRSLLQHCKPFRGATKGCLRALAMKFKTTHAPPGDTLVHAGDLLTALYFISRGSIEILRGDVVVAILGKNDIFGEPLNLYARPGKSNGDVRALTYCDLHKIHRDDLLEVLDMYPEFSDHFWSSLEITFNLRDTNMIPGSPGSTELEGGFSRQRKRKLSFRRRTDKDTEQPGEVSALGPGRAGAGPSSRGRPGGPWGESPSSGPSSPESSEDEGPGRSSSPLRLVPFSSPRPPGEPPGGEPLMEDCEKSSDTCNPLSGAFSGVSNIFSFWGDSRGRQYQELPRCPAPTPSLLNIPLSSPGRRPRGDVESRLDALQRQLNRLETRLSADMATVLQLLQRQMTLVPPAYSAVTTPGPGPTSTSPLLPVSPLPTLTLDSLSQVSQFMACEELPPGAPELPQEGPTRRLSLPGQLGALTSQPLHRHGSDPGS

Row | SMILES | AC50 [1] [µM] | AC50 [2] [µM] | AC50 [3] [µM] | AC50 [4] [µM] | AC50 [5] [µM] | AC50 [6] [µM] | AC50 [7] [µM] | AC50 [8] [µM] | AC50 [9] [µM] | AC50 [10] [µM] | AC50 [11] [µM] | AC50 [12] [µM] | AC50 [13] [µM] | AC50 [14] [µM]
1 | CCCCN1C[C@H](O)[C@@H](O)[C@H](O)[C@H]1CO | > 30 | > 30 | > 30 | > 30 | > 30 | > 30 | > 30 | > 30 | > 30 | > 30 | > 30 | > 300 | > 30 | > 30
2 | CN(C)CCC=C1c2ccccc2C(C)(C)c2ccccc21 | > 30 | > 30 | 5.8 | 1.05 | > 30 | 5.2 | 4.13 | > 30 | > 30 | 1.89 | > 30 | 130 | 4.4 | > 1
3 | CCOC(=O)[C@H](CCc1ccccc1)N[C@@H](C)C(=O)N1[C@H](C(=O)O)C[C@@H]2CCC[C@@H]21 | > 30 | > 10 | > 30 | > 10 | > 10 | > 10 | > 30 | > 30 | > 10 | > 10 | > 10 | > 300 | > 30 | > 10
4 | Nc1nc(NC2CC2)c2ncn([C@H]3C=C[C@@H](CO)C3)c2n1 [ABACAVIR] | > 30 | > 30 | > 30 | > 30 | > 30 | > 30 | > 30 | > 30 | > 30 | > 30 | > 30 | > 300 | > 30 | > 30
5 | CNC(=O)c1ccccc1Sc1ccc2c(/C=C/c3ccccn3)n[nH]c2c1 [AXITINIB] | 4.52 | > 30 | > 30 | > 30 | > 30 | > 30 | > 30 | > 30 | > 30 | > 30 | > 30 | 5.4 | > 30 | > 30
6 | CC[C@H]1OC(=O)[C@H](C)[C@@H](O[C@H]2C[C@@](C)(OC)[C@@H](O)[C@H](C)O2)[C@H](C)[C@@H](O[C@@H]2O[C@H](C)C[C@H](N(C)C)[C@H]2O)[C@](C)(O)C[C@@H](C)CN(C)[C@H](C)[C@@H](O)[C@]1(C)O [AZITHROMYCIN] | > 30 | > 10 | > 30 | > 10 | > 10 | > 10 | > 30 | > 30 | > 10 | > 10 | > 10 | 200 | > 10 | > 10
7 | NCC(CC(=O)O)c1ccc(Cl)cc1 (configuration not stated) [BACLOFEN] | 4.2 | > 30 | > 30 | > 30 | > 30 | > 30 | > 30 | > 30 | > 30 | > 30 | > 30 | > 300 | > 30 | > 30
8 | CC(C)C[C@H]1C(=O)N2CCC[C@H]2[C@]2(O)O[C@](NC(=O)[C@@H]3C=C4c5cccc6[nH]c(Br)c(c56)C[C@H]4N(C)C3)(C(C)C)C(=O)N12 [BROMOCRIPTINE] | 6.81 | > 30 | 12 | > 30 | > 30 | 9.23 | > 30 | > 30 | 1.52 | 0.105 | 25 | 1.6 | > 30 | > 30
9 | CN1C(=O)CCS(=O)(=O)C1c1ccc(Cl)cc1 (configuration not stated) [CHLORMEZANONE] | > 10 | > 30 | > 30 | > 10 | > 10 | > 10 | > 30 | > 10 | > 10 | > 30 | > 10 | > 300 | > 30 | > 10
10 | O=C1Nc2ccc(Cl)cc2[C@@](C#CC2CC2)(C(F)(F)F)O1 [EFAVIRENZ] | 6 | > 30 | 5.61 | 15 | > 30 | 19 | > 30 | > 30 | > 30 | > 30 | > 10 | 110 | > 30 | > 30
11 | O=C(OCC(O)CO)c1ccccc1Nc1ccnc2cc(Cl)ccc12 (configuration not stated) [GLAFENINE] | 7.2 | > 30 | > 30 | > 30 | > 30 | > 30 | 1.4 | > 30 | > 30 | > 30 | > 30 | 15 | > 30 | > 30
12 | COc1ccccc1OCC(O)CN1CCN(CC(=O)Nc2c(C)cccc2C)CC1 (configuration not stated) [RANOLAZINE] | > 30 | > 30 | > 30 | > 30 | > 30 | 7.8 | – | > 30 | > 30 | 18 | > 30 | > 300 | > 30 | > 30
